In ChEMBL document CHEMBL1146647, “First total synthesis of structurally unique flavonoids and their strong anti-inflammatory effect” (2004) one finds Increase data, which are given here for two compounds.

Structures are written as SMILES.

For this assay, the system named is Mus musculus. Nature of the assay: Percentage increase of mice ear thickness at 10 ug/kg. The format is functional.

For `O=c1cc(-c2ccc(O)cc2)oc2cc3c(c(O)c12)[C@@H]1O[C@H](CO)[C@@H](O)[C@H](O)[C@@H]1O3`, the Increase came to 30%. Consider `O=c1cc(-c2ccccc2)oc2cc3c(c(O)c12)[C@@H]1O[C@H](CO)[C@@H](O)[C@H](O)[C@@H]1O3`, for which the Increase is on record as 59%.
